Results: US20150148551A1, “GENISTEIN FOR REDUCING LEVELS OF STORAGE COMPOUNDS IN THE TREATMENT AND/OR PREVENTION OF LYSOSOMAL STORAGE DISEASES (LSDS)” (3G THERAPEUTICS, INC., priority 2012, published 2015)

What was measured:
Type in all cases: cell-based, human
[1] = test system: EXT1; assay: DNA microarray, EXT1 expression in fibroblasts exposed to genistein
Method: (§1) The experiments were conducted to characterise the transcriptomic profile of human fibroblast cells exposed to genistein, and in particular to determine the expression of genes encoding lysosomal enzymes involved in metabolism (i.e. synthesis and degradation) of organic substances. The absence or deficiency of these enzymes' activity is responsible for occurrence of various lysosomal storage diseases (LSD) (including MPS). The tested hypothesis assumed that genistein influences the expression of many genes, among which there are genes coding for enzymes required in metabolism of compounds, which are pathologically stored in LSD. The results provide important information regarding genistein action on the molecular level within the range of gene expression modulation by this substance. The experiment was conducted in biological quintuplicates. Human dermal fibroblasts (HDFa) were exposed in vitro for 1, 24 or 48 hours to: 30, 60 or 100 μM of genistein; 0.05% DMSO (K1); or were untreated (control cells) (K2), and total RNA was isolated and analysed.
(§2) Fibroblast cells were grown in Dulbecco (DMEM) medium supplemented with 10% fetal bovine serum (FBS) with the addition of 1% antibiotics and anti-fungal agents at 37° C. in humidified atmosphere of 5% CO2, until the required confluency was obtained.
(§3) To determine the effect of tested compound on the transcriptom of the fibroblast cells, the growth medium was replaced with fresh medium, either non-supplemented (0.05% DMSO), or containing genistein (30, 60 or 100 μM, in 0.05% DMSO). The exposure was done for 1, 24 or 48 hours.
(§4) Total RNA was isolated from fibroblasts using High Pure RNA Isolation Kit according to the protocol and then it was quantitatively evaluated using Quant-It™ RiboGreen® Assay Kit.
(§5) Biotinylated cRNA was prepared using Ambion Total PrepAmp Kit for Illumina arrays.
(§6) Standard hybridization and quantitative image analysis procedures—Illumina hybridization protocol and Illumina scanning protocol, were used.
(§7) Processing of the results was done during data definition, including: background correction (using background subtraction method), normalization (using quantile normalization algorithm with Illumina GenomeStudio software package: gene expression module version 1.9.0) and summarization (using method, which sums the values of signal intensities from a set of probes).

[2] = test system: IDUA; assay: DNA microarray, IDUA expression in fibroblasts exposed to genistein; conditions: for IDUA fold change Average: 48 h vs DMSO
Method: as §1, §2, §3, §4, §5, §6, §7

[3] = test system: GAA; assay: DNA microarray, GAA expression in fibroblasts exposed to genistein; conditions: for GAA fold change Average: 48 h vs DMSO
Method: as §1, §2, §3, §4, §5, §6, §7

[4] = test system: GBA; assay: DNA microarray, GBA expression in fibroblasts exposed to genistein; conditions: for GBA fold change Average: 48 h vs DMSO
Method: as §1, §2, §3, §4, §5, §6, §7

[5] = test system: GM2A; assay: DNA microarray, GM2A expression in fibroblasts exposed to genistein; conditions: for GM2A fold change Average: 48 h vs DMSO
Method: as §1, §2, §3, §4, §5, §6, §7

[6] = test system: NPC1; assay: DNA microarray, NPC1 expression in fibroblasts exposed to genistein; conditions: for NPC1 fold change Average: 48 h vs DMSO
Method: as §1, §2, §3, §4, §5, §6, §7

[7] = test system: TPP1; assay: DNA microarray, TPP1 expression in fibroblasts exposed to genistein; conditions: for TPP1 fold change Average: 48 h vs DMSO
Method: as §1, §2, §3, §4, §5, §6, §7

[8] = test system: SUMF1; assay: DNA microarray, SUMF1 expression in fibroblasts exposed to genistein; conditions: 30 μM
Method: as §1, §2, §3, §4, §5, §6, §7

Structure (SMILES): O=c1c(-c2ccc(O)cc2)coc2cc(O)cc(O)c12 [genistein, 4′,5,7-trihydroxy-3-phenylchromen-4-one]
- EXT1 fold change Average 1h30/1hK1 ([1]; 30 μM, 1 h vs 0.05% DMSO): 0.9138 fold change
- EXT1 fold change Average 24h30/24hK1 ([1]; 30 μM, 24 h vs 0.05% DMSO): 0.8048 fold change
- EXT1 fold change Average 48h30/48hK1 ([1]; 30 μM, 48 h vs 0.05% DMSO): 0.9291 fold change
- EXT1 fold change Average 1h60/1hK1 ([1]; 60 μM, 1 h vs 0.05% DMSO): 0.9881 fold change
- EXT1 fold change Average 24h60/24hK1 ([1]; 60 μM, 24 h vs 0.05% DMSO): 0.7005 fold change
- EXT1 fold change Average 48h61/48hK1 ([1]; 60 μM, 48 h vs 0.05% DMSO): 0.7648 fold change
- EXT1 fold change Average 1h100/1hK1 ([1]; 100 μM, 1 h vs 0.05% DMSO): 0.8358 fold change
- EXT1 fold change Average 24h100/24hK1 ([1]; 100 μM, 24 h vs 0.05% DMSO): 0.6022 fold change
- EXT1 fold change Average 48h100/48hK1 ([1]; 100 μM, 48 h vs 0.05% DMSO): 0.689 fold change
- IDUA fold change Average 1h30/1hK1 ([2]; 30 μM, 1 h vs 0.05% DMSO): 0.8853 fold change
- IDUA fold change Average ([2]; 30 μM): 1.1407 fold change
- IDUA fold change Average 1h60/1hK1 ([2]; 60 μM, 1 h vs 0.05% DMSO): 0.9788 fold change
- IDUA fold change Average ([2]; 60 μM): 1.212 fold change
- IDUA fold change Average 1h100/1hK1 ([2]; 100 μM, 1 h vs 0.05% DMSO): 0.9034 fold change
- IDUA fold change Average ([2]; 100 μM): 1.309 fold change
- GAA fold change Average 1h30/1hK1 ([3]; 30 μM, 1 h vs 0.05% DMSO): 0.9686 fold change
- GAA fold change Average 1h60/1hK1 ([3]; 60 μM, 1 h vs 0.05% DMSO): 1.087 fold change
- GAA fold change Average ([3]; 60 μM): 1.763 fold change
- GAA fold change Average 1h100/1hK1 ([3]; 100 μM, 1 h vs 0.05% DMSO): 0.935 fold change
- GAA fold change Average ([3]; 100 μM): 1.955 fold change
- GBA fold change Average 1h30/1hK1 ([4]; 30 μM, 1 h vs 0.05% DMSO): 0.9138 fold change
- GBA fold change Average ([4]; 30 μM): 1.257 fold change
- GBA fold change Average 1h60/1hK1 ([4]; 60 μM, 1 h vs 0.05% DMSO): 1.033 fold change
- GBA fold change Average ([4]; 60 μM): 1.467 fold change
- GBA fold change Average 1h100/1hK1 ([4]; 100 μM, 1 h vs 0.05% DMSO): 0.9469 fold change
- GBA fold change Average ([4]; 100 μM): 1.606 fold change
- GM2A fold change Average 1h30/1hK1 ([5]; 30 μM, 1 h vs 0.05% DMSO): 1.5655 fold change
- GM2A fold change Average ([5]; 30 μM): 1.0452 fold change
- GM2A fold change Average 1h60/1hK1 ([5]; 60 μM, 1 h vs 0.05% DMSO): 1.181 fold change
- GM2A fold change Average ([5]; 60 μM): 1.612 fold change
- GM2A fold change Average 1h100/1hK1 ([5]; 100 μM, 1 h vs 0.05% DMSO): 1.254 fold change
- GM2A fold change Average ([5]; 100 μM): 1.536 fold change
- NPC1 fold change Average 1h30/1hK1 ([6]; 30 μM, 1 h vs 0.05% DMSO): 0.9973 fold change
- NPC1 fold change Average ([6]; 30 μM): 1.567 fold change
- NPC1 fold change Average 1h60/1hK1 ([6]; 60 μM, 1 h vs 0.05% DMSO): 1.035 fold change
- NPC1 fold change Average ([6]; 60 μM): 1.875 fold change
- NPC1 fold change Average 1h100/1hK1 ([6]; 100 μM, 1 h vs 0.05% DMSO): 0.9825 fold change
- NPC1 fold change Average ([6]; 100 μM): 2.269 fold change
- TPP1 fold change Average 1h30/1hK1 ([7]; 30 μM, 1 h vs 0.05% DMSO): 1.0655 fold change
- TPP1 fold change Average ([7]; 30 μM): 1.2672 fold change
- TPP1 fold change Average 1h60/1hK1 ([7]; 60 μM, 1 h vs 0.05% DMSO): 1.001 fold change
- TPP1 fold change Average ([7]; 60 μM): 1.505 fold change
- TPP1 fold change Average 1h100/1hK1 ([7]; 100 μM, 1 h vs 0.05% DMSO): 1.031 fold change
- TPP1 fold change Average ([7]; 100 μM): 1.603 fold change
- SUMF1 fold change Average 1h30/1hK1 ([8]; 1 h vs 0.05% DMSO): 1.1314 fold change
- SUMF1 fold change Average ([8]; 48 h vs DMSO): 1.2364 fold change
